# Ends that are not written are not given here.
# Tests used:
# A375 melanoma cell [1] = assay: Cell adhesion inhibition activity of synthetic peptides (cell suspension includes the peptide); assay type: cell-based; details: Concentration 200 μg/ml; adhesion to fibronectin-coated plate, 60 minutes, 0.2% DMSO
# Experimental: The above synthetic peptides were used in this experiment after being dissolved in dimethyl sulfoxide (DMSO: Wako Jyunyaku Co.). To adjust a condition of each experiment to the same, DMSO was added into phosphate buffers containing urea-non-treated Hep 2 fragment, urea-treated Hep 2 fragment, GRGDSP peptide and phosphate buffer itself as a control, respectively. The concentration of DMSO of each experiment was adjusted to 0.2% of final concentration. Inhibition activity against cell adhesion was evaluated according to the method of Fukai et al. (Biochem. Biophys. Res. Commun., 220, 394-398, 1996). In other words, the inhibition activity against cell adhesion of A375 melanoma cell to a plate was measured under the condition with or without the above various synthetic peptides. A375 melanoma cell (American Type Culture Collection: ATCC) was suspended in Dulbecco's modified eagle medium (DMEM: Gibuco Co.) including 0.1% Ovalbumin (Wako Jyunyaku Co.) to be a concentration of 2×10^5 cells/ml. Before preparing cell suspension, a plate was coated with fibronectin according to the method of Miekka et al. Specifically, phosphate buffer containing 10 μg/ml of fibronectin (FN) was prepared and 100 μl of the resultant phosphate buffer containing fibronectin was added into each well of a 96-well plate and then the plate was incubated at 37° C., 5% CO2 concentration for 60 minutes before being washed with phosphate buffer three times. Fibronectin (FN) was purified according to the method of Miekka et al. (Thromb. Res., 27, 1-14, 1982). One hundred (100) μl of the above cell suspension was added into each well of the plate and the plate was incubated at 37° C., 5% CO2 concentration for 60 minutes (Control was without any synthetic peptide). After fixing cells in each well with 5% of formaldehyde (Wako Jyunyaku Co.), non adhesion cells were removed and calls in five areas selected at random in each well were counted by the use of a microscope.
# The addition of Hep 2 fragment and each peptide was carried out by the step in which a solution containing Hep 2 fragment or each peptides dissolved with high concentration was added to the cell suspension to obtain the final concentration of Hep 2 fragment or each peptides shown in Table 1.
# A375 melanoma cell [2] = assay: Cell adhesion inhibition activity (plate coated with fibronectin solution containing KLH modified synthetic peptide); assay type: cell-based; details: Experiment 2, KLH modified peptides coated with fibronectin, FIG. 3
# Experimental: The above various KLH modified synthetic peptides were added to a solution containing fibronectin to obtain a given concentration, then the procedure of Experiment 1 were repeated with the exception that the resultant solution were added into 96-well plate to coat it. The experiment without any synthetic peptide is a control (the concentration of a peptide was 0 μg/m 1).
# melanoma cell = details: in vivo; cited from earlier work
Substance,Cell adhesion inhibition activity (A375 melanoma cell [1]) [%],further results
"III 13-2: peptide consisting of SEQ ID NO:5, part of Hep 2 fragment (TGFQVDAVPANGQTPIQRTIKPDVR)",11,–
"III 14-1: peptide consisting of SEQ ID NO:7, part of Hep 2 fragment (NLRFLATTPNSLLVSWQPPRARITGYIIK)",11,–
"III 14-2C: peptide of sequence ID NO:12, a part of peptide III 14-2; tested KLH modified (YTIYVIALKNNQK; also: KLH conjugated)",–,cell adhesion inhibition activity (in words) (A375 melanoma cell [2]): the same strong cell adhesion inhibition activity as that of the peptide III 14-2
"III 12-1: peptide consisting of SEQ ID NO:1, part of Hep 2 fragment (AIPAPTDLKFTQVTPTSLSAQWTPPNVQLTG)",11,–
"III 12-3: peptide consisting of SEQ ID NO:3, part of Hep 2 fragment (VSVYALKDTLTSRPAQGVVTTLE)",7,–
"III 14-2A: peptide of sequence ID NO:10, a part of peptide III 14-2; tested KLH modified (RPRPGVTEATITG; also: KLH conjugated)",–,cell adhesion inhibition activity (in words) (A375 melanoma cell [2]): very little cell adhesion inhibition activity
GRGDS,–,inhibition of experimental metastasis of melanoma cell to lung (melanoma cell): inhibits experimental metastasis of melanoma cell to lung
"III 12-2: peptide consisting of SEQ ID NO:2, part of Hep 2 fragment (INLAPDSSSVVVSGLMVATKWE)",13,–
"III 13-3: peptide consisting of SEQ ID NO:6, part of Hep 2 fragment (SYTITGLQPGTDYKIYLYTLNDNAR)",9,–
"III 13-1: peptide consisting of SEQ ID NO:4, part of Hep 2 fragment (NVSPPRRARVTDATETTITISWRTKTETI)",4,–
"III 14-2B: peptide of sequence ID NO:11, a part of peptide III 14-2; tested KLH modified (LEPGTEYTIYVIALKNNQK; also: KLH conjugated)",–,cell adhesion inhibition activity (in words) (A375 melanoma cell [2]): the same strong cell adhesion inhibition activity as that of the peptide III 14-2

# From patent US6274704A, “Peptides derived from the heparin binding domain of fibronectin” (Hisamitsu Pharmaceutical Co., Inc., priority 1996, dated 2001)
